Test results reported in ChEMBL document CHEMBL1909046, “DrugMatrix in vitro pharmacology data”.

Experiments:
[1] = target: Sigma non-opioid intracellular receptor 1 (Homo sapiens, UniProt Q99720); test: DRUGMATRIX: Sigma1 radioligand binding (ligand: [3H] Haloperidol); type: cell membranes, Jurkat, Membrane; conditions: jurkat; Not Active = under 50% inhibition at 10 µM
Carbonic anhydrase 2 = Carbonic anhydrase 2 (Homo sapiens, UniProt P00918); test: DRUGMATRIX: Carbonic Anhydrase II enzyme inhibition (substrate: 4-Nitrophenyl acetate (4-NPA)); type: tissue-based, Erythrocyte; conditions: erythrocyte; Not Active = under 50% inhibition at 10 µM
[2] = target: T1, Polyunsaturated fatty acid lipoxygenase ALOX15 (Oryctolagus cuniculus, UniProt P12530); test: biochemical; type: tissue-based, Reticulocytes; conditions: reticulocytes;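 note: inhibition of 15-lipoxygenase enzyme activity measured with linoleic acid as the substrate; in other assays of this panel Not Active means under 50% inhibition at 10 µM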
T1 sequence (P12530 whole entry): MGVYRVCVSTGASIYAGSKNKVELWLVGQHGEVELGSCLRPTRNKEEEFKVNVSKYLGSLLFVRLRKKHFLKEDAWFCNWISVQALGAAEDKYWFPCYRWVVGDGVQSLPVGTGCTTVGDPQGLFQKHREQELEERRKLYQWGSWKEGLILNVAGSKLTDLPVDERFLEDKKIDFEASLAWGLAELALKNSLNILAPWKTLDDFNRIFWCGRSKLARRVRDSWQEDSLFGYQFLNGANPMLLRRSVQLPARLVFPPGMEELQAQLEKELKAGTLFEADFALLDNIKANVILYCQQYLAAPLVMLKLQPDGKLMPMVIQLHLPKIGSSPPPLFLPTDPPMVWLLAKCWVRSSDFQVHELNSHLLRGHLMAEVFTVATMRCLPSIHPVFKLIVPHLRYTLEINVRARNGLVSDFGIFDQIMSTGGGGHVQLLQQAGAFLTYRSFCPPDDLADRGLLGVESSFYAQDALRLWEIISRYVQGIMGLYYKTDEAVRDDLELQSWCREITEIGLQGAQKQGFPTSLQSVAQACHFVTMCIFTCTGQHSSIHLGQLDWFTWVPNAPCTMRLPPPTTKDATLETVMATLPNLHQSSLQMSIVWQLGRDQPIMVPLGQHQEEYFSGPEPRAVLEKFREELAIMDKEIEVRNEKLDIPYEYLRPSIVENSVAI

[3] = target: T2, Muscarinic acetylcholine receptor M2 (Homo sapiens, UniProt P08172); type: cell membranes, CHO-K1, Membrane; conditions: cho-k1; note: in other assays of this panel Not Active means under 50% inhibition at 10 µM
T2 sequence (P08172 whole entry): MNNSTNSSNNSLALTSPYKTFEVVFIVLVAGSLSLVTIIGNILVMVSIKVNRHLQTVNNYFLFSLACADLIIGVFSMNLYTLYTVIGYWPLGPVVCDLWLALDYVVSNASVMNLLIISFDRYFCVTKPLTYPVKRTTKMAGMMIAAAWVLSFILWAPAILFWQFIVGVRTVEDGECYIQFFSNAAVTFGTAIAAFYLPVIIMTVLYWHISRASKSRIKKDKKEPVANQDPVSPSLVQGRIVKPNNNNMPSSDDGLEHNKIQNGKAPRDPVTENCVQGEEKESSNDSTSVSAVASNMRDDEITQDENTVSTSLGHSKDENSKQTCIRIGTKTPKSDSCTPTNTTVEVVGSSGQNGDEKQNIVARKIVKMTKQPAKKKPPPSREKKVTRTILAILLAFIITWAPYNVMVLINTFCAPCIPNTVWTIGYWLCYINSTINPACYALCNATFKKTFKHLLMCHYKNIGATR

Cathepsin G = target: T3, Cathepsin G (Homo sapiens, UniProt P08311); type: tissue-based; conditions: neutrophil;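 note: inhibition of Cathepsin G enzyme activity, tested on an AMC-conjugated peptide substrate; in other assays of this panel Not Active means under 50% inhibition at 10 µM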
T3 sequence (P08311 whole entry): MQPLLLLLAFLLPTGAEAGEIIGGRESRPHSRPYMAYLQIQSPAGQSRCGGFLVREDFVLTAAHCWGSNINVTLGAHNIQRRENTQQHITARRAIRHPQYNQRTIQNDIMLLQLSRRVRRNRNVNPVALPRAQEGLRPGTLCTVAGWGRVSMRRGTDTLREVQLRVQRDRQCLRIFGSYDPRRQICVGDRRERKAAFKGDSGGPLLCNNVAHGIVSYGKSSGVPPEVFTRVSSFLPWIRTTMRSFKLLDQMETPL

Cytochrome P450 2C9 = Cytochrome P450 2C9 (Homo sapiens, UniProt P11712); conditions: bti-tn-5b1-4; note: in other assays of this panel Not Active means under 50% inhibition at 10 µM
Sequence of Cytochrome P450 2C9 (P11712 whole entry): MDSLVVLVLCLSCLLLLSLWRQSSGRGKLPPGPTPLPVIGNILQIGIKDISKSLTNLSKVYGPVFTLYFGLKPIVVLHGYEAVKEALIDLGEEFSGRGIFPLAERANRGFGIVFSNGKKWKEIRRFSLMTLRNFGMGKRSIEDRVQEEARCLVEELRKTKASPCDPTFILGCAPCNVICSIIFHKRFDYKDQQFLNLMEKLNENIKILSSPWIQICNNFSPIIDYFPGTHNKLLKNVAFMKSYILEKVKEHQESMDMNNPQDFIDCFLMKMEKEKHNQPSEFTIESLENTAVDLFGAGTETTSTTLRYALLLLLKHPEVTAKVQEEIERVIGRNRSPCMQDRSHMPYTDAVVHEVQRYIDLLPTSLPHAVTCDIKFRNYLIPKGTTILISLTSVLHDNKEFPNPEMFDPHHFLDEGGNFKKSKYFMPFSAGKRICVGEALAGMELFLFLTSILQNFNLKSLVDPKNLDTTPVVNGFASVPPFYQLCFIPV

[4] = target: Voltage-gated inwardly rectifying potassium channel KCNH2 (Homo sapiens, UniProt Q12809); conditions: hek293; note: in other assays of this panel Not Active means under 50% inhibition at 10 µM
Sequence of Voltage-gated inwardly rectifying potassium channel KCNH2 (Q12809 whole entry): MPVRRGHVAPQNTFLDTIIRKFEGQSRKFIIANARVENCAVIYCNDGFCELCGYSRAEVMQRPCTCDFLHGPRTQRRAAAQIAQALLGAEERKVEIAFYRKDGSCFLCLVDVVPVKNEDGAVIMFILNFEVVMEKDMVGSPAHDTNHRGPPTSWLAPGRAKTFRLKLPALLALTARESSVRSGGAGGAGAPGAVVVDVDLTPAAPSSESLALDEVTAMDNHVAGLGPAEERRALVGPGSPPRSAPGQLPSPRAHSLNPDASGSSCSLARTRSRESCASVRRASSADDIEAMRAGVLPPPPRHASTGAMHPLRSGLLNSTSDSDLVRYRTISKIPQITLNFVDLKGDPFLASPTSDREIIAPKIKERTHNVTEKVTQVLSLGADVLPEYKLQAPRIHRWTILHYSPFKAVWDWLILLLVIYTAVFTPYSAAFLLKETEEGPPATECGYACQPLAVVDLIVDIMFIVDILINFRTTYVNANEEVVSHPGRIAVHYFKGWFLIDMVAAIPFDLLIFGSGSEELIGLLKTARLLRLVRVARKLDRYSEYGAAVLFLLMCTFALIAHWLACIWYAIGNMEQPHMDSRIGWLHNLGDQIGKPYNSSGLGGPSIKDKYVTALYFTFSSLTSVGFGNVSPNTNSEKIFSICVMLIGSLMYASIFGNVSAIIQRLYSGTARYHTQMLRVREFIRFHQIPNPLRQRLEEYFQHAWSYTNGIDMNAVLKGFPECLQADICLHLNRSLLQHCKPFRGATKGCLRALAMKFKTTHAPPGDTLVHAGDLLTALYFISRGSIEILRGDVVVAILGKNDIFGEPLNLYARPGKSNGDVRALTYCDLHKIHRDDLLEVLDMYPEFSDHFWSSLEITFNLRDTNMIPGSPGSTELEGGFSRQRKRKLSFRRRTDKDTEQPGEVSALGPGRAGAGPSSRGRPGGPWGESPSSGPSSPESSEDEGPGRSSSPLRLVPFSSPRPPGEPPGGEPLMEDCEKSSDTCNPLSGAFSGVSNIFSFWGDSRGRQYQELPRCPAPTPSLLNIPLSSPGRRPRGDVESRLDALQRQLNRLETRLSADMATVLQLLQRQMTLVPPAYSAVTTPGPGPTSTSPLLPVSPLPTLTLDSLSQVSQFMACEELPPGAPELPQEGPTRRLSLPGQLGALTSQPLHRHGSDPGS

Sequence of Sigma non-opioid intracellular receptor 1 (Q99720 whole entry): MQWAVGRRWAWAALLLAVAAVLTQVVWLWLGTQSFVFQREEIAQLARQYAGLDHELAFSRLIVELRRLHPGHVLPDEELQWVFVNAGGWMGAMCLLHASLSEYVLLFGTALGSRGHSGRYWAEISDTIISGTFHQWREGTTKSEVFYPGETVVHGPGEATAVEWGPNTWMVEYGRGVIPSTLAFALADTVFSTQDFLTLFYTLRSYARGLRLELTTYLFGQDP

CC(C)(C)NC(=O)[C@@H]1C[C@@H]2CCCC[C@@H]2CN1C[C@@H](O)[C@H](Cc1ccccc1)NC(=O)[C@H](CC(N)=O)NC(=O)c1ccc2ccccc2n1
Not Active: IC50 [1] | IC50 (Carbonic anhydrase 2) | IC50 [2] | IC50 [3] | IC50 (Cathepsin G) | IC50 (Cytochrome P450 2C9) | Ki (Cytochrome P450 2C9) | IC50 [4] | Ki [4]

SODIUM NITROPRUSSIDE
Not Active: IC50 [1] | Ki [1] | IC50 (Carbonic anhydrase 2) | Ki (Carbonic anhydrase 2) | IC50 [2] | Ki [2] | IC50 [3] | Ki [3] | IC50 (Cathepsin G) | Ki (Cathepsin G) | IC50 (Cytochrome P450 2C9) | Ki (Cytochrome P450 2C9) | IC50 [4] | Ki [4]

N[C@@H]1[C@H]2CN(c3nc4c(cc3F)c(=O)c(C(=O)O)cn4-c3ccc(F)cc3F)C[C@@H]12 [TROVAFLOXACIN]
Not Active: IC50 [1] | IC50 (Carbonic anhydrase 2) | IC50 [2] | IC50 [3] | IC50 (Cathepsin G) | IC50 (Cytochrome P450 2C9) | Ki (Cytochrome P450 2C9) | IC50 [4] | Ki [4]

CC[C@@H](CO)NC(=O)[C@@H]1C=C2c3cccc4[nH]cc(c34)C[C@H]2N(C)C1 [METHYLERGONOVINE]
Not Active: IC50 [1] | IC50 (Carbonic anhydrase 2) | IC50 [2] | IC50 [3] | IC50 (Cathepsin G) | IC50 (Cytochrome P450 2C9) | Ki (Cytochrome P450 2C9) | IC50 [4] | Ki [4]

Cc1cccc(N(C)C(=S)Oc2ccc3ccccc3c2)c1 [TOLNAFTATE]
Not Active: IC50 [1] | IC50 (Carbonic anhydrase 2) | IC50 [2] | IC50 [3] | IC50 (Cathepsin G) | IC50 (Cytochrome P450 2C9) | Ki (Cytochrome P450 2C9) | IC50 [4] | Ki [4]

Cc1oncc1C(=O)Nc1ccc(C(F)(F)F)cc1 [LEFLUNOMIDE]
Not Active: IC50 [1] | IC50 (Carbonic anhydrase 2) | IC50 [2] | IC50 [3] | IC50 (Cathepsin G) | IC50 (Cytochrome P450 2C9) | Ki (Cytochrome P450 2C9) | IC50 [4] | Ki [4]

CCCOc1ccccc1-c1nc2nn[nH]c2c(=O)[nH]1 [ZAPRINAST]
Not Active: IC50 [1] | IC50 (Carbonic anhydrase 2) | IC50 [2] | IC50 [3] | IC50 (Cathepsin G) | IC50 (Cytochrome P450 2C9) | Ki (Cytochrome P450 2C9) | IC50 [4] | Ki [4]

CC[C@]1(O)C[C@H]2CN(CCc3c([nH]c4ccccc34)[C@@](C(=O)OC)(c3cc4c(cc3OC)N(C=O)[C@H]3[C@@](O)(C(=O)OC)[C@H](OC(C)=O)[C@]5(CC)C=CCN6CC[C@]43[C@@H]65)C2)C1 [VINCRISTINE]
Not Active: IC50 [1] | IC50 (Carbonic anhydrase 2) | IC50 [2] | IC50 [3] | IC50 (Cathepsin G) | IC50 (Cytochrome P450 2C9) | Ki (Cytochrome P450 2C9) | IC50 [4] | Ki [4]

COc1c(C)c2c(c(O)c1C/C=C(\C)CCC(=O)O)C(=O)OC2 [MYCOPHENOLIC ACID]
Not Active: IC50 [1] | IC50 (Carbonic anhydrase 2) | IC50 [2] | IC50 [3] | IC50 (Cathepsin G) | IC50 (Cytochrome P450 2C9) | Ki (Cytochrome P450 2C9) | IC50 [4] | Ki [4]

CSc1ccc(/C=C2/C(C)=C(CC(=O)O)c3cc(F)ccc32)cc1 [SULINDAC SULFIDE]
Not Active: IC50 [1] | IC50 (Carbonic anhydrase 2) | IC50 [2] | IC50 [3] | IC50 (Cathepsin G) | IC50 (Cytochrome P450 2C9) | Ki (Cytochrome P450 2C9) | IC50 [4] | Ki [4]

O=NN(CCCl)C(=O)NC1CCCCC1 [LOMUSTINE]
Not Active: IC50 [1] | IC50 (Carbonic anhydrase 2) | IC50 [2] | IC50 [3] | IC50 (Cathepsin G) | IC50 (Cytochrome P450 2C9) | Ki (Cytochrome P450 2C9) | IC50 [4] | Ki [4]
